Results: article PMC6767234, “Effects of the Ethanol Extract of Dipterocarpus alatus Leaf on the Unpredictable Chronic Mild Stress-Induced Depression in ICR Mice and Its Possible Mechanism of Action” (Molecules, 2019)
Counter-ions that a name gives are not always drawn.

Legend:
[1] = test system: mice; settings: cited from earlier work
[2] = test system: UCMS; design: method as in PMID 28732760; settings: cited from earlier work
[3] = test system: ICR mice; design: method as in PMID 31394019; settings: oral, 5 mg/kg for 7 days, vs vehicle-administered control group; cited from earlier work
[4] = test system: serum corticosterone (CORT); assay: Serum corticosterone (CORT) ELISA in UCMS mice; assay type: in vivo, ICR mice; settings: imipramine 20 mg/kg/day, LE 100–500 mg/kg/day for 3 weeks, vs vehicle-treated UCMS group
Procedure: (§1) UCMS procedures were used to induce the depressive-like behaviors in mice as previously described by Mizuki et al., with minor modification. Briefly, in week 0, the animals were first trained to consume a 2% sucrose solution for a 48-h period in their home cages with no food or water. After this training, the animals were deprived of water and food for 18 h, and then sucrose solution was given for 1 h per day for 5 consecutive days in order to group the mice and determine the baseline sucrose consumption. The animals were randomly divided into 5 groups: a non-stressed control group and 4 other groups subjected to UCMS for 5 weeks. […]
After completing the behavioral analysis, blood was collected via cardiac puncture under anesthesia with pentobarbital sodium as anesthetic drug (Nembutal®: 60 mg/kg i.p.; Ceva Sante Animale, Libourne, France). […] The absorbance was immediately determined at 450 nm.

[5] = test system: UCMS mice; assay: Sucrose preference test (anhedonia) in UCMS mice; assay type: in vivo, ICR mice; settings: IMP 20 mg/kg i.p. daily, 5th week, vs vehicle-treated UCMS group
Procedure: as §1, with “weeks. The UCMS procedures consisted of a variety of unpredictable mild stressors, including two periods of cage tilting at 45° (12 h), two periods of restricted access to food (5 micropellets, 1 h), two periods of exposure to an empty bottle (3 h), one 21 h-period of a wet cage (200 mL of water in 100 g of sawdust bedding), two periods of light exposure (36 h), two periods of intermittent sound (a cat singing sound) (3 and 5 h), two periods of paired caging (2 h), and food and water deprivation for 18 h before the measurement of 2% sucrose solution consumption.” for “weeks.”
The sucrose preference test was used to assess the anhedonic-like behavior. […] The amounts of 2% (w/v) sucrose solution were recorded. […]

[6] = test system: UCMS mice; assay: Locomotor activity in the Y-maze task in UCMS mice; assay type: in vivo, ICR mice; settings: LE 100 and 500 mg/kg p.o., IMP 20 mg/kg i.p.
Procedure: as §1
In order to exclude false positive results from drug-induced hyperlocomotion in hopeless behavioral tests, locomotor activity was determined by evaluation of mice movement. […] One hour after drug administration, the mice were individually placed on one arm, and the total arm entries were recorded manually over 8 min-period for measuring the locomotion activity.

[7] = test system: CREB mRNA; assay: QPCR of CREB mRNA in frontal cortex and hippocampus of UCMS mice; assay type: in vivo, ICR mice; settings: LE 100 and 500 mg/kg p.o., IMP 20 mg/kg i.p.
Procedure: as §1
(§2) Mouse serum/glucocorticoid-regulated kinase 1 (SGK1), cyclic AMP response element binding protein (CREB), brain-derived neurotrophic factor (BDNF), mRNAs expression in hippocampus and frontal cortex were quantified by real time PCR. […] Fold difference relative expressions were calculated.

[8] = test system: UCMS mice; assay: Forced swimming test (FST) in UCMS mice; assay type: in vivo, ICR mice; settings: LE 100 and 500 mg/kg p.o. (dose-dependent), IMP 20 mg/kg i.p., vs vehicle-treated UCMS group
Procedure: as §1, with “weeks. The UCMS procedures consisted of a variety of unpredictable mild stressors, including two periods of cage tilting at 45° (12 h), two periods of restricted access to food (5 micropellets, 1 h), two periods of exposure to an empty bottle (3 h), one 21 h-period of a wet cage (200 mL of water in 100 g of sawdust bedding), two periods of light exposure (36 h), two periods of intermittent sound (a cat singing sound) (3 and 5 h), two periods of paired caging (2 h), and food and water deprivation for 18 h before the measurement of 2% sucrose solution consumption.” for “weeks.”
Forced swimming test (FST) is one of the most commonly used animal models for assessing antidepressant-like behavior. […] The immobility time was recorded during 5 min.

[9] = test system: SGK1 mRNA; assay: QPCR of SGK1 mRNA in frontal cortex and hippocampus of UCMS mice; assay type: in vivo, ICR mice; settings: LE 100 and 500 mg/kg p.o. (dose-dependent), IMP 20 mg/kg i.p.
Procedure: as §1, §2

[10] = test system: UCMS mice; assay: Tail suspension test (TST) in UCMS mice; assay type: in vivo, ICR mice; settings: LE 100 and 500 mg/kg p.o. (dose-dependent), IMP 20 mg/kg i.p., vs vehicle-treated UCMS group
Procedure: as §1
Each mouse was suspended upside down in the tail suspension test box, which leads to characteristic behavior immobility. […] Immobility duration was recorded for the last 4 min, during a 6-min observation period. […]

[11] = test system: BDNF mRNA; assay: QPCR of BDNF mRNA in frontal cortex and hippocampus of UCMS mice; assay type: in vivo, ICR mice; settings: LE 100 and 500 mg/kg p.o., IMP 20 mg/kg i.p.
Procedure: as §1, §2

[12] = target: T1, recombinant human MAO-A (Homo sapiens, UniProt P21397); settings: read-out: Km for the oxidation of kynuramine by MAO-A; cited from earlier work
T1 sequence (P21397 1-527): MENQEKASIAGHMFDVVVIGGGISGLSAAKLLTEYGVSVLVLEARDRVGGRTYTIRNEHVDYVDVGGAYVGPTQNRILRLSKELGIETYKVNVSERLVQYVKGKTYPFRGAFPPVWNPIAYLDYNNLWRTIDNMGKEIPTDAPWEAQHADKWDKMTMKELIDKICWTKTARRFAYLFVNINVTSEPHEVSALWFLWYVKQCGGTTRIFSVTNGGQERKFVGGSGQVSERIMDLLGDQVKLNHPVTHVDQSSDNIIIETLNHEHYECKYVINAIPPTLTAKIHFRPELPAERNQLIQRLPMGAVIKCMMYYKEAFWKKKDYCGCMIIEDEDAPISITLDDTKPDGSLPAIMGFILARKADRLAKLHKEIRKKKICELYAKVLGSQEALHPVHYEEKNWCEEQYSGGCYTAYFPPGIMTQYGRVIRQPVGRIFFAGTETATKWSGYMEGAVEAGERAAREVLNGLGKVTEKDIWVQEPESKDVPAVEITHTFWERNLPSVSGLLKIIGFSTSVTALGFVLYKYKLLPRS

[13] = target: T2, recombinant human MAO-B (Homo sapiens, UniProt P27338); settings: read-out: Km for the oxidation of kynuramine by MAO-B; cited from earlier work
T2 sequence (P27338 1-520): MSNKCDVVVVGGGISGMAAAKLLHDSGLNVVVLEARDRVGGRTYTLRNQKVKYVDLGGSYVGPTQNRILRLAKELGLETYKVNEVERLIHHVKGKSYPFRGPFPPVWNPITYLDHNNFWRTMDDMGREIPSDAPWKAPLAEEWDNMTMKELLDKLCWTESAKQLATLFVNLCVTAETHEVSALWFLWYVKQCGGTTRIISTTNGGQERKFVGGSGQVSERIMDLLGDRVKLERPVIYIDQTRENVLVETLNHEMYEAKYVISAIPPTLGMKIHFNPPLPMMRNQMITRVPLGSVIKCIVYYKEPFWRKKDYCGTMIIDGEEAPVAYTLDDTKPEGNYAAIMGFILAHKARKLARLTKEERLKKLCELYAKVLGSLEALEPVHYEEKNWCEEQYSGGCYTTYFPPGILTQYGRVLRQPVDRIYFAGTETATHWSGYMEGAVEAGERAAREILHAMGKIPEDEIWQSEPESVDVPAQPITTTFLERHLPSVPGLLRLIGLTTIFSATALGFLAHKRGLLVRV

O=c1c(O)c(-c2ccc(O)cc2)oc2cc(O)cc(O)c12 [Kaemferol]
immobility time in FST and TST ([1]; stress-induced mice compared with unstressed mice): reducing the immobility time

C[C@@H]1O[C@@H](OC[C@H]2O[C@@H](Oc3c(-c4ccc(O)c(O)c4)oc4cc(O)cc(O)c4c3=O)[C@H](O)[C@@H](O)[C@@H]2O)[C@H](O)[C@H](O)[C@H]1O [Rutin, quercetin-3-rutinoside]
UCMS-induced behavioral deficits [2]: efficiently rescued the UCMS-induced behavioral deficits

COc1cc(/C=C/C(=O)O)ccc1O [ferulic acid]
immobility [3]: significantly reduced immobility

CN(C)CCCN1c2ccccc2CCc2ccccc21 [imipramine, imipramine hydrochloride]
UCMS-induced elevation in serum CORT levels [4]: significantly suppressed | 2% sucrose intake [5]: significant increase | locomotor activity (number of arm entries, Y-maze) [6]: neither imipramine (IMP) nor the ethanol extract of D. alatus leaf improved the locomotor activity | expression of CREB mRNA [7]: normalized the down-regulated expression | immobility time in FST [8]: significantly decreased the immobility time | mRNA expression of SGK1 [9]: markedly decreased | immobility time in TST [10]: significantly decreased the immobility time | expression of BDNF mRNA [11]: normalized the down-regulated expression

NCCC(=O)c1ccccc1N [kynuramine]
Km [12]: 16.1 µM | Km [13]: 22.7 µM

O=c1cc(-c2ccc(O)c(O)c2)oc2cc(O)cc(O)c12 [luteolin]
effect in FST and TST ([1]; oral administration, 50 mg/kg): antidepressant effects
